The numbers were not newly measured in patent US20160206617A1, “COMPOSITIONS AND THERAPEUTIC METHODS FOR ACCELERATED PLAQUE REGRESSION” (RESVERLOGIX CORP., priority 2013, published 2016), which cites them from elsewhere.

The test system of data set [1] is ApoA-I. As to conditions: in vitro and in vivo.
Data set [2] concerns atherosclerosis. As to conditions: REVERSAL; 2 years; pravastatin 40 mg daily, atorvastatin 80 mg daily.
Data set [3] has as its system atherosclerosis. As to conditions: SATURN; 2 years; rosuvastatin 40 mg daily, atorvastatin 80 mg daily.
The test system of data set [4] is atherosclerosis.

Read-outs that look alike come from different tables or passages of the source.

Take `COc1cc(OC)c2c(=O)[nH]c(-c3cc(C)c(OCCO)c(C)c3)nc2c1` [RVX-208, 2-(4-(2-hydroxyethoxy)-3,5-dimethylphenyl)-5,7-dimethoxyquinazolin-4(3H)-one]: in data set [1], the “effect on plasma levels of ApoA-I and HDL” value was “increase plasma levels of ApoA-I and HDL”.
Take `CC(C)c1c(C(=O)Nc2ccccc2)c(-c2ccccc2)c(-c2ccc(F)cc2)n1CC[C@@H](O)C[C@@H](O)CC(=O)O` [atorvastatin]: the “median change in PAV” value in data set [2] is given as “+0.2%”; in data set [3], −0.99%.
For `CC(C)c1nc(N(C)S(C)(=O)=O)nc(-c2ccc(F)cc2)c1/C=C/[C@@H](O)C[C@@H](O)CC(=O)O` [rosuvastatin, (3R,5S,6E)-7-[4-(4-fluorophenyl)-2-(N-methylmethanesulfonamido)-6-(propan-2-yl)pyrimidin-5-yl]-3,5-dihydroxyhept-6-enoic acid], in data set [4] (ASTEROID, 2 years, rosuvastatin 40 mg daily, all patients), the “median change PAV” value was −0.79%. In addition, the “median decrease in PAV from baseline” value in data set [4] (ASTEROID, subgroup with average HDL-C during treatment less than 40 mg/dL) was −1.3%. The “PAV decrease (median change)” value in data set [4] (FIG. 8, rosuvastatin 40 mg without RVX-208, after 104 weeks, below median HDL) is on record as 1.30%. For the same compound, the “median change in PAV” value in data set [3] is listed as −1.22%.
